According to patent publication US8535942B2, “Glypican-3 (GPC3)-derived tumor rejection antigenic peptides useful for HLA-A2-positive patients and pharmaceutical comprising the same” (Oncotherapy Science, Inc., priority 2005, dated 2013):
“Also recorded” adds a separate entry of the source. No end group written: not given here.

Each sequence was assayed on SK-Hep-1/GPC3 cells (assay: Cytotoxicity test of peptide-induced killer T cells (calcein AM, Terascan VP)). Details: killer T cells induced with peptide-loaded dendritic cells; targets SK-Hep-1/GPC3 vs SK-Hep-1; E/T ratio 20:1.
Assay type: cell-based, human
Protocol: Informed consent was obtained from HLA-A2-positive hepatocellular carcinoma patients, who were in therapy at Gastroenterological Surgery, Kumamoto University School of Medicine, and at Hospital East, the National Cancer Center. Thereafter, 30 ml of blood sample was obtained from individual patients, and peripheral blood mononuclear cells were then isolated using Ficoll-Conray density-gradient centrifugation method according to the previously reported method (Nakatsura, T et al., Eur. J. Immunol. 32, 826-836 (2002)).
From the isolated peripheral blood mononuclear cells, killer T cells were induced by the previously reported method (Monji, M et al., Clin Cancer Res 10, 6047-6057, 2004). First, CD8-positive cells and CD14-positive cells were separated from the peripheral blood mononuclear cells using MACS. The CD14-positive cells were cultured in the presence of GM-CSF (100 ng/ml) and IL-4 (20 ng/ml) for 5 days, so that differentiation of dendritic cells was induced. Thereafter, TNF-α (20 ng/ml) was added thereto for maturation. On the 7th day, each GPC3 peptide (10 μM) was added thereto, and co-culture with CD8-positive cells was then carried out. This antigen stimulation with autologous CD14-positive cell-derived dendritic cells was repeated 3 or 4 times every week, so that peptide-specific killer T cells were induced. During the induction, half a medium was exchanged with a fresh one every two days, and IL-2 was added thereto in a concentration of 10 U/ml.
The cytotoxic activity of killer T cells was evaluated by a cytotoxic test using Terascan VP. First, target cells were fluorescently labeled with a calcein AM staining solution at 37° C. for 30 minutes. Such cells were co-cultured with killer T cells on a Coster 96-well half area plate, and fluorescently labeled cells were then detected over time, thereby measuring the degree of cytotoxicity. The analysis was carried out using cytotoxicity test computing software CalCT-961 of MINERVA TECH, which was used in a fluorescence method. An experiment was carried out at an E/T ratio of 20:1. […]

Sequence | GPC3-specific cytotoxic activity
FVGEFFTDV [GPC3 144-152, FVGEFFTDV] | confirmed; also recorded: exhibited strong cytotoxic activity
RLQPGLKWV [GPC3 44-52, RLQPGLKWV] | confirmed; also recorded: exhibited strong cytotoxic activity
YILGSDINV [GPC3 155-163, YILGSDINV] | confirmed; also recorded: exhibited strong cytotoxic activity
